Data reported in publication PMC10933920, “Synthesis and Anti-Inflammatory Activity of Ferulic Acid-Sesquiterpene Lactone Hybrids” (Molecules, 2024).
In brackets after ≈: the same amount, converted by molar mass. Entries after “also recorded” stand apart in the source; their conditions may differ.

Legend:
[1] = test system: LPS-induced expression of IL-1β, IL-6 and iNOS in RAW264.7 cells; assay: qRT-PCR of pro-inflammatory cytokine gene expression after LPS stimulation; format: cell-based, Mouse; settings: RAW264.7 cells pre-treated 2 h, LPS 1 μg/mL 6 h, RT-PCR, 2 μM
Excerpt: Inflammatory factors, including TNF-α, IL-1β, and IL-6, are involved in and accelerate inflammatory responses during inflammatory progression. In addition, iNOS (Nitric oxide synthase)-derived monocytes contribute to macrophage recruitment in the lung, and pulmonary-derived iNOS is detrimental during acute lung injury. Moreover, observations indicate that inhibiting iNOS can reduce inflammation in the early stages of the bleomycin model of acute lung injury. Therefore, the effective suppression of inflammation is considered an effective marker for the treatment of inflammation. To establish the efficacy of those compounds suppressing inflammatory procession, we tested pro-inflammatory cytokines that are released from the RAW264.7 cells upon LPS stimulation.
Total RNA was isolated using TRIzol reagent (Takara, Ōtsu-shi, Japan) and then transcribed into cDNA using a transcriptor cDNA synthesis kit (TransGen Biotech, Beijing, China) according to the manufacturer’s instructions. Quantitative real-time PCR was performed with TransStart® Green qPCR SuperMix (TransGen Biotech, China). The conditions for the real-time PCR reaction were as follows: 94 °C, 30 s; 94 °C, 5 s; 60 °C, 30 s; 40 cycles. The primers for this research are listed in Supplementary Material Table S1.
Figure 2 Anti-inflammation of 1–6 in RAW264.7 Cells. Expression of proinflammatory cytokines in RAW264.7 cells use RT-PCR. Cells (1 × 10^6 cells/well) were seeded into 6-well plates and then pro-treated with 1–6 for 2 h. Cells were then challenged with LPS (1 μg/mL) or medium alone for 6 h and Total RNA was extracted from cells with Trizol reagent. TNF-α: tumor necrosis factor-α; IL-1β:Interleukin-1β; L-6: Interleukin-6. Data were analyzed by One-Way ANOVA. *: p < 0.05; **: p < 0.01. ns: no significance.

[2] = test system: RAW264.7 cells; assay: CCK-8 cell viability (cytotoxicity) assay; format: cell-based, Mouse; settings: for IC50: RAW264.7 cells, CCK-8, 24 h incubation, means of three independent experiments
Procedure: CCK-8 Cell Proliferation was used to confirm the non-cytotoxic dose of those derivatives in RAW264.7 cells. However, IC50 values of those compounds show visible difference in vitro (Table 1). Considering the safety of compound 6 in RAW264.7 cells, a follow-up experiment was carried out at the concentration of 2 μM.
The toxicity of those compounds was determined by the CCK-8 assay. RAW264.7 cells were seeded in a 96-well plate at a density of 2 × 10^5/mL and a volume of 100 μL/well. After incubation for 12 h at 37 °C, the cells were then incubated with compounds at concentrations of 1.25, 2.5, 5, 10, 20, 40 and 80 μM for 24 h, followed by the addition of 10 μL CCK-8 solution to each well, and the plates were further incubated for 2 h at 37 °C. The absorbance at a wavelength of 450 nm was measured using a microplate reader (Bio-Rad Laboratories, Inc., Hercules, CA, USA).

[3] = Aqueous solubility measurement; format: physicochemical; settings: for solubility: thermodynamic from solid, deionized water, pH = 7.0, at least in duplicate, read-out: Aqueous Solubility IC50; for water solubility (in words): pH 7.0
Procedure: PTL, MCL and compounds 1–6 (0.1, 1, 10 mg) were dissolved in deionized water (pH = 7.0) until the solution was clear. The assays were measured at least in duplicate.

[4] = Release of prodrug into active drug in HEPES buffer; format: physicochemical; settings: HEPES buffer pH 7.4, 37 °C, HPLC; read-out: T1/2 (conversion of prodrug 6 into compound 3) (converted)
Procedure: The Michael addition reaction has emerged as an effective synthetic strategy to improve the water solubility and pharmaceutical efficacy of active drug compounds [34]. […] In addition, the use of Michael addition products can also serve to modulate the release rate of active drugs, thereby enabling better control over the pharmacological effects of such compounds. Thus, the experiment of converting the prodrug compound (6) into compound (3) was evaluated in a HEPES buffer solution with a pH of 7.4. Compound 6 rapidly releases compound 3 under these conditions. (Figure 6, T1/2 = 2 h).
A total of 10 mg of compound 6 was dissolved in 10 mL MeCN. A 0.5 mL volume of compound 6 solution was placed in 49.5 mL of HEPES at pH 7.4. The tubes were then incubated in a bath incubator at 37 °C. Samples were removed after 10 s, and the concentration of compound 6 and 3 was analyzed by HPLC.
Figure 6 The stability of compound 6 in pH7.4 HEPES buffer.

[5] = test system: BLM-induced acute lung injury in C57BL/6J mice; assay: Bleomycin-induced acute lung injury model; format: in vivo; settings: compound 6 10 mg/kg i.p. daily for 14 days
Procedure: To further confirm the anti-inflammation effect of compound 6 in vivo, we made the acute-lung-injury model in C57/6j mice using bleomycin. […] To further investigate the protective effect of 6 by BLM-induced ALI, the pathological changes in lung tissues were studied (Figure 5).
C57BL/6J mice (male) were purchased from Vital River Laboratories (Beijing, China). All procedures were conducted according to the Nankai University Guidelines on Animal Care, and the experimental protocol was approved by the Institutional Animal Protection Committee of the Nankai University (Tianjing, China, NO. 2022-SYDWLL-000342). Animals were sheltered under standard conditions with food and water provided ad libitum. Experiments were conducted on 8-week-old male mice, randomly divided into 4 groups: Control (Con), ALI (bleomycin), Dex (dexamethasone) and compound 6. For bleomycin-induced lung injury, mice were sedated, and a single dose of intratracheal bleomycin (4 mg/kg; Selleckchem, Houston, TX, USA) in sterile PBS. 6 was administered daily for 14 days via intraperitoneal injections (i.p) (100 μL/mouse of […] 6 in PBS). Dexamethasone (2 mg/kg) was administered orally. The mice were monitored and their weight was measured daily. After 14 days, the mice were killed with anesthetic overdose and exsanguinated by cutting the abdominal aorta before the collection of lungs.
Body weight variations were calculated from the measured weights at each time point (days 1–14), including before the sacrifice of the mice reaching the endpoints. To avoid a potential bias by studying the animals with the better outcomes, animals reaching endpoints were included in the calculation of the weight variation and survival rates.
Figure 4 Effect of compound 6 on body weight and survival after bleomycin-induced acute lung injury in mice. After bleomycin (4 mg/kg, 25 μL), mice were treated (i.p) daily with compound 6 (10 mg/kg, 100 μL) for 14 days. Body weight variations ((A), n = 12) and percentage (%) of mouse survival ((B), n = 5–12) were compared between the four groups. (Values are means ± SEM, ** p < 0.01). […]

[6] = test system: TNF-α and IL-6 release from LPS-stimulated RAW264.7 cells; assay: ELISA of pro-inflammatory cytokine protein levels in culture supernatant; format: cell-based, Mouse; settings: RAW264.7 cells pre-treated 6 h, LPS 24 h
[7] = set-up: method as in PMID 30208745; settings: cited from earlier work

solubility [3]	SMILES	gene expression of pro-inflammatory cytokines (IL-1β, IL-6, iNOS) [1]	IC50 ([2]; Mus musculus, RAW264.7, 24 h)	further results
< 10 µg/mL	C=C1C(=O)O[C@@H]2C3C(=C(C)CC[C@@H]12)CC[C@@]3(C)OC(=O)/C=C/c1ccc(O)c(OC)c1 (stereo partly drawn) [Compound 1, (3aS,9R,9bS)-6,9-dimethyl-3-methylene-2-oxo-2,3,3a,4,5,7,8,9,9a,9b-decahydroazuleno[4,5-b]furan-9-yl (E)-3-(4-hydroxy-3-methoxyphenyl)acrylate]	reduce the gene expression levels of IL-1β, IL-6 and iNOS significantly; also recorded: comparable activities	6.14 ± 0.09 µM	–
< 10 µg/mL	COc1cc(/C=C/C(=O)O[C@]2(C)CCC3=C(C)CC[C@@H]4[C@H](OC(=O)[C@H]4CN(C)C)[C@H]32)ccc1O [Compound 2, (3R,3aS,9R,9aS,9bS)-3-((dimethylamino)methyl)-6,9-dimethyl-2-oxo-2,3,3a,4,5,7,8,9,9a,9b-decahydroazuleno[4,5-b]furan-9-yl (E)-3-(4-hydroxy-3-methoxyphenyl)acrylate]	decreased activity compared with compound 1	–	IC50 [2]: 19.6 ± 0.21 µM
< 10 µg/mL	C=C1C(=O)OC2C1CCC(COC(=O)C=Cc1ccc(O)c(OC)c1)=CCCC1(C)OC21 [Compound 3, ((1aR,7aS,10aS,10bS,E)-1a-methyl-8-methylene-9-oxo-1a,2,3,6,7,7a,8,9,10a,10b-decahydrooxireno[2′,3′:9,10]cyclodeca[1,2-b]furan-5-yl)methyl (E)-3-(4-hydroxy-3-methoxyphenyl)acrylate]	reduce the gene expression levels of IL-1β, IL-6 and iNOS significantly; also recorded: comparable activities	3.04 ± 0.08 µM	melting point: 96 to 98 °C
< 10 µg/mL	COc1cc(C=CC(=O)NCC2=CCCC3(C)OC3C3OC(=O)C(CN(C)C)C3CC2)ccc1O [Compound 4, (E)-N-(((1aR,7aS,8R,10aS,10bS,E)-8-((dimethylamino)methyl)-1a-methyl-9-oxo-1a,2,3,6,7,7a,8,9,10a,10b-decahydrooxireno[2′,3′:9,10]cyclodeca[1,2-b]furan-5-yl)methyl)-3-(4-hydroxy-3-methoxyphenyl)acrylamide]	neither the amide derivative of FA-PTL hybrid 4 or 5 (the prodrug of 2 containing citric acid) showed anti-inflammation activities	38.4 ± 1.14 µM	melting point: 132 to 134 °C
2500 µg/mL	COc1cc(/C=C/C(=O)O[C@]2(C)CCC3=C(C)CC[C@@H]4[C@H](OC(=O)[C@H]4CN(C)C)[C@H]32)ccc1O.O=C(O)CC(O)(CC(=O)O)C(=O)O [Compound 5, (3R,3aS,9R,9aS,9bS)-3-((dimethylamino)methyl)-6,9-dimethyl-2-oxo-2,3,3a,4,5,7,8,9,9a,9b-decahydroazuleno[4,5-b]furan-9-yl (E)-3-(4-hydroxy-3-methoxyphenyl)acrylate 2-hydroxypropane-1,2,3-tricarboxylate]	neither the amide derivative of FA-PTL hybrid 4 or 5 (the prodrug of 2 containing citric acid) showed anti-inflammation activities	28.8 ± 0.21 µM	water solubility (in words) [3]: significantly improved water solubility
–	C/C1=C\CC[C@@]2(C)O[C@@H]2[C@H]2OC(=O)[C@H](CN(C)C)[C@@H]2CC1 [DMAPT]	–	–	solubility relative to parent compound parthenolide [7]: more than 1000 times
–	COc1cc(/C=C/C(=O)O)ccc1O [FA, Ferulic acid]	–	> 100 µM	–
50 µg/mL (≈ 201 µM)	C=C1C(=O)O[C@H]2[C@H]1CCC(C)=C1CC[C@@](C)(O)[C@@H]12 [MCL, micheliolide, reference compound]	–	9.03 ± 0.16 µM	–
50 µg/mL (≈ 201 µM)	C=C1C(=O)O[C@H]2[C@H]1CC/C(C)=C/CC[C@@]1(C)O[C@@H]21 [PTL, Parthenolide, reference compound]	–	5.35 ± 0.06 µM	–

SMILES	solubility [3]	gene expression of pro-inflammatory cytokines (IL-1β, IL-6, iNOS) [1]	IC50 ([2]; Mus musculus, RAW264.7, 24 h)	further results
COc1cc(C=CC(=O)OCC2=CCCC3(C)OC3C3OC(=O)C(CN(C)C)C3CC2)ccc1O [Compound 6, ((1aR,7aS,8R,10aS,10bS,E)-8-((dimethylamino)methyl)-1a-methyl-9-oxo-1a,2,3,6,7,7a,8,9,10a,10b-decahydrooxireno[2′,3′:9,10]cyclodeca[1,2-b]furan-5-yl)methyl (E)-3-(4-hydroxy-3-methoxyphenyl)acrylate 2-hydroxypropane-1,2,3-tricarboxylate]	2500 µg/mL (≈ 5150 µM)	comparable activities; also recorded: could significantly reduce inflammation of RAW264.7 cells induced by LPS	6.95 ± 1.09 µM	half-life at 10 µg/mL [4]: 2 h; decline in cytotoxic effect compared to parent compound 3 ([2]; RAW264.7 cell line, versus compound 3): 2 fold; survival rate [5]: did not reverse the survival rate; acute lung injury / lung pathology (H&E: inflammatory cell infiltration, edema, alveolar structure) ([5]; 10 mg/kg): reduced inflammatory cell infiltration and edema in lung tissue of mice, and improved alveolar structure; also recorded: ameliorated inflammatory cell infiltration and edema in lung tissue; also recorded: could significantly decrease the acute lung injury induced by bleomycin; body weight loss ([5]; 10 mg/kg): prevented the weight loss significantly; protein levels / release of pro-inflammatory cytokines (TNF-α and) [6]: could also inhibit the release of pro-inflammatory cytokines in vitro; water solubility (in words) [3]: outstanding water solubility; also recorded: significantly improved water solubility; also recorded: good water solubility; also recorded: more soluble than the reference compound 3
